Results taken from patent US20240000946A1, “CARBONIC ANHYDRASE INHIBITORS SYNTHESIZED ON INTERCONNECTING LINKER CHAINS” (VILNIUS UNIVERSITY, priority 2020, published 2024).

Legend:
human recombinant CA VA = target: T1, human recombinant CA VA (Homo sapiens, UniProt P35218); test: Fluorescent thermal shift assay (FTSA), CA VA; assay type: binding; conditions: 37° C., pH 7.0
T1 construct: recombinant human carbonic anhydrase catalytic domains using the fluorescent thermal shift assay; made in house
T1 sequence (P35218 39-296 limits assumed): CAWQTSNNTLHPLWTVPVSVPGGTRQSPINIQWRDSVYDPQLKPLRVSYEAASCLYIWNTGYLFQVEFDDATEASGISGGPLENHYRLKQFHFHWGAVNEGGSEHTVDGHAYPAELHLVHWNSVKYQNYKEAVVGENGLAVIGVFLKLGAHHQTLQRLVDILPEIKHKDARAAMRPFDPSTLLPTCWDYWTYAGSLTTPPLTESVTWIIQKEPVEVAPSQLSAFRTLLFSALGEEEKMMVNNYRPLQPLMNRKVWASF
Experimental: (§1) The protein solution in the absence and presence of various compound concentrations was heated from 25 to 99° C. (heating rate 1° C./min). The melting temperature Tm shift was determined by following the fluorescence of 8-anilino-1-naphthalene sulfonate (ANS). The samples consisted of 5 μM protein (except 10 μM for CA IV), different concentrations of compound (usually 0-200 μM), 50 μM ANS and 50 mM sodium phosphate buffer (at pH 7.0) containing 100 mM sodium chloride and 2% (v/v) of DMSO. Compound binding constant was obtained from protein Tm as a function of the added ligand concentration. Data analysis was performed, and the curves were fit so that the binding constant is determined for 37° C.

human recombinant CA I = target: T2, human recombinant CA I (Homo sapiens, UniProt P00915); test: Fluorescent thermal shift assay (FTSA), CA I; assay type: binding; conditions: 37° C., pH 7.0
T2 construct: recombinant human carbonic anhydrase catalytic domains using the fluorescent thermal shift assay; made in house
T2 sequence (P00915 4-261 limits assumed): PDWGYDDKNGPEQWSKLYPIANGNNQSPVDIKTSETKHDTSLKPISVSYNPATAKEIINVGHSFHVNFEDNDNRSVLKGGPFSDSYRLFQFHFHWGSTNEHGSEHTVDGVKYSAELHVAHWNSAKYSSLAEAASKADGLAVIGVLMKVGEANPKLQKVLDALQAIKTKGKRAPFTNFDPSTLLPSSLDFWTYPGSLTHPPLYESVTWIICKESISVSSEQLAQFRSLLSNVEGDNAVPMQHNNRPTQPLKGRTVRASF
Experimental: as §1

human recombinant CA XII = target: T3, human recombinant CA XII (Homo sapiens, UniProt O43570); test: Fluorescent thermal shift assay (FTSA), CA XII; assay type: binding; conditions: 37° C., pH 7.0
T3 construct: recombinant human carbonic anhydrase catalytic domains using the fluorescent thermal shift assay; made in house
T3 sequence (O43570 30-289 limits assumed): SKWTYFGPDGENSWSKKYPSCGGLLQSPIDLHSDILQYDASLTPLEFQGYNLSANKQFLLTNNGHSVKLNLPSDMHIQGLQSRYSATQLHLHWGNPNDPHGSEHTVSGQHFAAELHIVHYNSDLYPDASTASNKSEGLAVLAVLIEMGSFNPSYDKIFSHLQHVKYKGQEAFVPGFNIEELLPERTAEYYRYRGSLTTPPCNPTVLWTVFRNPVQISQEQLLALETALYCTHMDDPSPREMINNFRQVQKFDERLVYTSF
Experimental: as §1

human recombinant CA IX = target: T4, human recombinant CA IX (Homo sapiens, UniProt Q16790); test: Fluorescent thermal shift assay (FTSA), CA IX; assay type: binding; conditions: 37° C., pH 7.0
T4 construct: recombinant human carbonic anhydrase catalytic domains using the fluorescent thermal shift assay; made in house
Experimental: as §1

human recombinant CA VI = target: T5, human recombinant CA VI (Homo sapiens, UniProt P23280); test: Fluorescent thermal shift assay (FTSA), CA VI; assay type: binding; conditions: 37° C., pH 7.0
T5 construct: recombinant human carbonic anhydrase catalytic domains using the fluorescent thermal shift assay; made in house
T5 sequence (P23280 21-278 limits assumed): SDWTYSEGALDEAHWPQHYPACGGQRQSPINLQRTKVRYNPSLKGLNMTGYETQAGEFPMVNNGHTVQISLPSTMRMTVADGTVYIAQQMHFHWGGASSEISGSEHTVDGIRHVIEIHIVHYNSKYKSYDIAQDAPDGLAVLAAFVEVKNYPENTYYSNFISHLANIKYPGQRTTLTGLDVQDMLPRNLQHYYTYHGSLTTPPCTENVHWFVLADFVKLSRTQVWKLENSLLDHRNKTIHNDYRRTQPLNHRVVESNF
Experimental: as §1

human recombinant CA VII = target: T6, human recombinant CA VII (Homo sapiens, UniProt P43166); test: Fluorescent thermal shift assay (FTSA), CA VII; assay type: binding; conditions: 37° C., pH 7.0
T6 construct: recombinant human carbonic anhydrase catalytic domains using the fluorescent thermal shift assay; made in house
T6 sequence (P43166 5-262 limits assumed): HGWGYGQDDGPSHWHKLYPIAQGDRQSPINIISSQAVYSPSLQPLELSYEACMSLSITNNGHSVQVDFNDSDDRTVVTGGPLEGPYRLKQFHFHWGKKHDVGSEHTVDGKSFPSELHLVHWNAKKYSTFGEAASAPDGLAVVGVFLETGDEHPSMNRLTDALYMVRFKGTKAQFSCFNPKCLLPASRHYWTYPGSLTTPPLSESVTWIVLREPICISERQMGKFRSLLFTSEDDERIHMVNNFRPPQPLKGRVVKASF
Experimental: as §1

human recombinant CA IV = target: T7, human recombinant CA IV (Homo sapiens, UniProt P22748); test: Fluorescent thermal shift assay (FTSA), CA IV; assay type: binding; conditions: 37° C., pH 7.0
T7 construct: recombinant human carbonic anhydrase catalytic domains using the fluorescent thermal shift assay; made in house
T7 sequence (P22748 21-285 limits assumed): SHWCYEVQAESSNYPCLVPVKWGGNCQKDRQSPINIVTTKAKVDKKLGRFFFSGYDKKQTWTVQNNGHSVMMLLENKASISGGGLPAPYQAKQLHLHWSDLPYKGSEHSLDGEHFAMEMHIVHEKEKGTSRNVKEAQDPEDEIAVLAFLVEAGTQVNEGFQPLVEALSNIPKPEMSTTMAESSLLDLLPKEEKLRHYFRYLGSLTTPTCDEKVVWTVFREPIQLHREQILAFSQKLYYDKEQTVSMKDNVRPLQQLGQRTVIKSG
Experimental: as §1

human recombinant CA VB = target: T8, human recombinant CA VB (Homo sapiens, UniProt Q9Y2D0); test: Fluorescent thermal shift assay (FTSA), CA VB; assay type: binding; conditions: 37° C., pH 7.0
T8 construct: recombinant human carbonic anhydrase catalytic domains using the fluorescent thermal shift assay; made in house
T8 sequence (Q9Y2D0 37-296 limits assumed): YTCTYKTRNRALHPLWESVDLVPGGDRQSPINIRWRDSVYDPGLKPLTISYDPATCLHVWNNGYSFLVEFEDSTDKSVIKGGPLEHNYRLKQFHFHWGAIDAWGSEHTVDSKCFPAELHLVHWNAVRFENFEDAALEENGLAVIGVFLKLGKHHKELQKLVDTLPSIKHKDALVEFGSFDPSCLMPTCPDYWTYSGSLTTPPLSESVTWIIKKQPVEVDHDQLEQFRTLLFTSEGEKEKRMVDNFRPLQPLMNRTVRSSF
Experimental: as §1

[1] = target: T9, human recombinant CA XIII (Homo sapiens, UniProt Q8N1Q1); test: Fluorescent thermal shift assay (FTSA), CA XIII; assay type: binding; conditions: 37° C., pH 7.0
T9 construct: recombinant human carbonic anhydrase catalytic domains using the fluorescent thermal shift assay; made in house
T9 sequence (Q8N1Q1 4-261 limits assumed): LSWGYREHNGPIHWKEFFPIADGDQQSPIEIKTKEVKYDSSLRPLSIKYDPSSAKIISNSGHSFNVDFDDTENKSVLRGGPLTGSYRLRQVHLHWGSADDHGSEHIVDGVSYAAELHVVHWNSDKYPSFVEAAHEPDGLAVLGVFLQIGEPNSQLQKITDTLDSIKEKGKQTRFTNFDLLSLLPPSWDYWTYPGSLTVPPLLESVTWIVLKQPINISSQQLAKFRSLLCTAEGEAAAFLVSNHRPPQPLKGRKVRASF
Experimental: as §1

human recombinant CA XIV = target: T10, human recombinant CA XIV (Homo sapiens, UniProt Q9ULX7); test: Fluorescent thermal shift assay (FTSA), CA XIV; assay type: binding; conditions: 37° C., pH 7.0
T10 construct: recombinant human carbonic anhydrase catalytic domains using the fluorescent thermal shift assay; made in house
T10 sequence (Q9ULX7 20-278 limits assumed): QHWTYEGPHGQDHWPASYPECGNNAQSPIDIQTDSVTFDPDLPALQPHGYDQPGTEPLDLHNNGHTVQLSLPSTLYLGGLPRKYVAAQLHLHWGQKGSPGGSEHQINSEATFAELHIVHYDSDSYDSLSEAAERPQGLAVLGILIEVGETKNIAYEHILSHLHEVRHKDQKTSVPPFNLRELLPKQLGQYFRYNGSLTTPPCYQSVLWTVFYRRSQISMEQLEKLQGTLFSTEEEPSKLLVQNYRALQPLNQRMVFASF
Experimental: as §1

human recombinant CA III = target: T11, human recombinant CA III (Homo sapiens, UniProt P07451); test: Fluorescent thermal shift assay (FTSA), CA III; assay type: binding; conditions: 37° C., pH 7.0
T11 construct: recombinant human carbonic anhydrase catalytic domains using the fluorescent thermal shift assay; made in house
T11 sequence (P07451 3-259 limits assumed): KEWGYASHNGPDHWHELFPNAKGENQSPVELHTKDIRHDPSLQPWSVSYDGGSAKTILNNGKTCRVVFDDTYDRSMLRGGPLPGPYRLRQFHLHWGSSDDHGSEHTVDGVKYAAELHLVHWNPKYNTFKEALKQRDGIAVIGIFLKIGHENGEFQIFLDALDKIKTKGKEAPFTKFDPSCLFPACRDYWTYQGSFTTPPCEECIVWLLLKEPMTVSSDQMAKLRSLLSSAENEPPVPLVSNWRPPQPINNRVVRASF
Experimental: as §1

human recombinant CA II = target: T12, human recombinant CA II (Homo sapiens, UniProt P00918); test: Fluorescent thermal shift assay (FTSA), CA II; assay type: binding; conditions: 37° C., pH 7.0
T12 construct: recombinant human carbonic anhydrase catalytic domains using the fluorescent thermal shift assay; made in house
Experimental: as §1

carbonic anhydrase IX = target: T13, carbonic anhydrase IX (Homo sapiens, UniProt Q16790); test: Inhibition of CA enzymatic (CO2 hydratase) activity; assay type: biochemical
T13 construct: made in house
Experimental: The inhibition of hydratase activity of carbonic anhydrase I, II, and IX was performed using Applied Photophysics SX.18 MV-R instrument at 24° C. Theaturated substrate solution was prepared by bubbling carbon dioxide gas into Milly-Q water for 1 hour at room temperature. Phenol red was used as a pH indicator to follow the absorbance (A-557 nm) while CA acidified the medium. […] Raw curves were fitted using a single exponential model, and the dissociation constants were determined using the Morrison equation: […]
Where [CA] is a total added concentration of active CA, [I]—total added inhibitor concentration, and Kd is inhibitor binding affinity.

HeLa cancer cell culture = test: Acidification of extracellular medium by hypoxic HeLa cell culture; assay type: cell-based, human; conditions: 1 μM compound
Experimental: FIG. 6. HeLa cancer cell culture grown for 48 hours under hypoxic (1% O2) conditions caused acidification of extracellular medium as visualized by pH drop from initial pH 7.74 (shown as a dashed bold line) to pH 6.35.

SMILES	Kd (human recombinant CA VA)	Kd (human recombinant CA I)	Kd (human recombinant CA XII)	Kd (human recombinant CA IX)	Kd (human recombinant CA VI)	Kd (human recombinant CA VII)	Kd (human recombinant CA IV)	Kd (human recombinant CA VB)	Kd [1]	Kd (human recombinant CA XIV)	Kd (human recombinant CA III)	Kd (human recombinant CA II)	IC50 (carbonic anhydrase IX; 50 nM enzyme CA IX, compound titrates the enzyme, read-out: Compound concentration at 50% remaining activity of CA IX)	Kd (carbonic anhydrase IX; read-out: Real affinity for CA IX as bounded by enzymatic inhibition)	Inhibition of acidification at 1 μM (HeLa cancer cell culture)
NS(=O)(=O)c1c(F)c(F)c(S(=O)(=O)CCNC(=O)CCOCCOCCOCCOCCOCCOCCOCCOCCOCCOCCOCCOCCOCCC(=O)O)c(NC2CCCCCCC2)c1F [AZ19-3-1, 3-[2-[2-[2-[2-[2-[2-[2-[2-[2-[2-[2-[2-[3-[2-[2-(cyclooctylamino)-3,5,6-trifluoro-4-sulfamoyl-phenyl]sulfonylethylamino]-3-oxo-propoxy]ethoxy]ethoxy]ethoxy]ethoxy]ethoxy]ethoxy]ethoxy]ethoxy]ethoxy]ethoxy]ethoxy]ethoxy]propanoic acid]	10000 nM	10000 nM	20 nM	0.05 nM	500 nM	50 nM	1000 nM	70 nM	20 nM	10 nM	≥ 200000 nM	250 nM			
NS(=O)(=O)c1c(F)c(F)c(S(=O)(=O)CCNC(=O)CCOCCOCCOCCOCCOCCOCCOCCOCCOCCOCCOCCOCCOCCC(=O)NCCS(=O)(=O)c2c(F)c(F)c(S(N)(=O)=O)c(F)c2NC2CCCCCCC2)c(NC2CCCCCCC2)c1F [AZ19-3-2, N-[2-[2-(cyclooctylamino)-3,5,6-trifluoro-4-sulfamoyl-phenyl]sulfonylethyl]-3-[2-[2-[2-[2-[2-[2-[2-[2-[2-[2-[2-[2-[3-[2-[2-(cyclooctylamino)-3,5,6-trifluoro-4-sulfamoyl-phenyl]sulfonylethylamino]-3-oxo-propoxy]ethoxy]ethoxy]ethoxy]ethoxy]ethoxy]ethoxy]ethoxy]ethoxy]ethoxy]ethoxy]ethoxy]ethoxy]propanamide]	3000 nM	3300 nM	20 nM	0.015 nM		330 nM	250 nM	70 nM	2 nM	8.3 nM	≥ 200000 nM	100 nM	~10 nM	< 10 nM	mostly inhibited
NS(=O)(=O)c1c(F)c(F)c(S(=O)(=O)CCNC(=O)CCOCCOCCOCCOCCOCCOCCOCCOCCOCCOCCOCCOCCNC(=O)CCCCC2SCC3NC(=O)NC32)c(NC2CCCCCCC2)c1F (centres unmarked) [AZ19-1, N-[2-[2-[2-[2-[2-[2-[2-[2-[2-[2-[2-[2-[3-[2-[2-(cyclooctylamino)-3,5,6-trifluoro-4-sulfamoyl-phenyl]sulfonylmethylamine]-3-oxo-propoxy]ethoxy]ethoxy]ethoxy]ethoxy]ethoxy]ethoxy]ethoxy]ethoxy]ethoxy]ethoxy]ethoxy]ethyl]-5-(2-oxo-1,3,3a,4,6,6a-hexahydrothieno[3,4-d]imidazol-4-yl)pentanamide]	7100 nM	10000 nM	50 nM	0.1 nM	980 nM	150 nM	1000 nM	83 nM	50 nM	27 nM	≥ 200000 nM	450 nM			
